Data reported in US11873288B2, “Inhibitors for soluble epoxide hydrolase (sEH) and fatty acid amide hydrolase (FAAH)” (The Regents of the University of California, priority 2016, dated 2024).

Key:
Type in all cases: biochemical
hFAAH [1] = target: T1, hFAAH (Homo sapiens, UniProt O00519); assay: hFAAH inhibition kinetics (KD, k2)
T1 construct: made in house
T1 sequence (O00519 1-579): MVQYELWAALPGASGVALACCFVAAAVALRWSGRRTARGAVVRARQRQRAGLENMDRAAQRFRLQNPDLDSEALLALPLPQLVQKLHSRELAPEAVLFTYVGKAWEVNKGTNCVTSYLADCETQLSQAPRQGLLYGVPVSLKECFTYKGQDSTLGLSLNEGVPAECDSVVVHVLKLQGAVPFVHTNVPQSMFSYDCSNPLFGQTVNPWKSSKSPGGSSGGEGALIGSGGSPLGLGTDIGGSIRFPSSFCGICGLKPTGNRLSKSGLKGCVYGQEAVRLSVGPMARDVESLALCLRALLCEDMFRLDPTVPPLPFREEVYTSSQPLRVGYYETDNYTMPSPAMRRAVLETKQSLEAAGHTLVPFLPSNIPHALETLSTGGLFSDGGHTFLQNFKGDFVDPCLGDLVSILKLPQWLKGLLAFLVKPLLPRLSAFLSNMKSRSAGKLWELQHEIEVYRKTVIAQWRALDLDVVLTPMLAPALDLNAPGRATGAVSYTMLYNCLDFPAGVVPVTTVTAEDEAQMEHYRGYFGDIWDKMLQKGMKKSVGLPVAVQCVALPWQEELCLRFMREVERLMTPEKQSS

hsEH = target: T2, hsEH (Homo sapiens, UniProt P34913); assay: human sEH inhibition (hsEH IC50)
T2 sequence (P34913 1-555): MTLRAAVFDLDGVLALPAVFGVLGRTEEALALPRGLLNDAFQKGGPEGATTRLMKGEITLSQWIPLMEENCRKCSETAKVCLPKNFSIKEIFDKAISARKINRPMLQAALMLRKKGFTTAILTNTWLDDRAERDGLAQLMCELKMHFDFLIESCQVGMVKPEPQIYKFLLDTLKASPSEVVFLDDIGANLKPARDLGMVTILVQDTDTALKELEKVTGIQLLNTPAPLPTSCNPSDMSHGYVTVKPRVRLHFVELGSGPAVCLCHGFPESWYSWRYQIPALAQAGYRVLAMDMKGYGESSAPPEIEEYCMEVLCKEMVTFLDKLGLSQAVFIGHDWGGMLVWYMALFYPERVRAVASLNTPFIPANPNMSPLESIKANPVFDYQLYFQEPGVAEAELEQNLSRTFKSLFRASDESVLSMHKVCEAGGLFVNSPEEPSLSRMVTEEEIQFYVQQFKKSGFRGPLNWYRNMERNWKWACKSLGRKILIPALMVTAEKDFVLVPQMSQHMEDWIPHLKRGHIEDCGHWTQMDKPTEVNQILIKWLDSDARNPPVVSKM

hFAAH [2] = target: T1, hFAAH; assay: recombinant FAAH enzyme with fluorescent substrate OMP (hFAAH IC50, screen)

Row | Structure (SMILES) | IC50 (hsEH) [nM] | IC50 (hFAAH [2]) [nM] | other results
1 | COc1ccc(NC(=O)N2CCC(Cc3ccc4ccccc4c3)CC2)cc1 [Compound B-8, N-(4-methoxyphenyl)-4-(naphthalen-2-ylmethyl)piperidine-1-carboxamide] | 120 ± 30 | 7.4 | Kd (hFAAH [1]): 18 ± 4 nM; hFAAH k2 (hFAAH [1]): 0.26 ± 0.03 min⁻¹
2 | O=C(Nc1ccc(OC(F)(F)F)cc1)N[C@H]1CC[C@H](Oc2ccc(CO)cc2)CC1 [Compound A-24, 1-(trans-4-(4-(hydroxymethyl)phenoxy)cyclohexyl)-3-(4-(trifluoromethoxy)phenyl)urea] | 3 | – | –
3 | Cc1noc(NC(=O)N2CCC(Cc3cccc(Oc4ccc(C(F)(F)F)cn4)c3)CC2)c1C [Compound B-17] | 500 | 1 | –
4 | CC(C)OC(=O)c1ccc(O[C@H]2CC[C@H](NC(=O)Nc3ccc(OC(F)(F)F)cc3)CC2)cc1 [Compound A-13, isopropyl 4-((trans-4-(3-(4-(trifluoromethoxy)phenyl)ureido)cyclohexyl)oxy)benzoate] | 5 | – | –
5 | O=C(Nc1ccc(OC(F)(F)F)cc1)N[C@H]1CC[C@H](Oc2ccc(C(=O)NCc3ccccc3)cc2)CC1 [Compound A-27, N-benzyl-trans-4-((−4-(3-(4-(trifluoromethoxy)phenyl)ureido)cyclohexyl)oxy)benzamide] | 5 | – | –
6 | COc1ccc(NC(=O)N2CCC(Cc3ccc4ccccc4n3)CC2)cc1 [Compound B-7, N-(4-methoxyphenyl)-4-(quinolin-2-ylmethyl)piperidine-1-carboxamide] | – | – | Kd (hFAAH [1]): 100 ± 40 nM; hFAAH k2 (hFAAH [1]): 0.28 ± 0.04 min⁻¹
7 | COC(=O)c1ccc(O[C@H]2CC[C@H](NC(=O)Nc3ccc(OC(F)(F)F)cc3)CC2)cc1 [Compound A-12, methyl 4-((trans-4-(3-(4-(trifluoromethoxy)phenyl)ureido)cyclohexyl)oxy) benzoate] | 7 | – | –
8 | COc1ccc(O[C@H]2CC[C@H](NC(=O)Nc3ccc(OC(F)(F)F)cc3)CC2)cc1 [Compound A-22] | 3 | – | –
9 | O=C(O)c1ccc(OC2CCN(C(=O)Nc3ccc(OC(F)(F)F)cc3)CC2)cc1 [Compound A-10, 4-((1-((4-(trifluoromethoxy)phenyl)carbamoyl)piperidin-4-yl)oxy)benzoic acid] | 8 | – | –
10 | O=C(Nc1ccc(OC(F)(F)F)cc1)N1CCC(Cc2cnc3ccccc3c2)CC1 [Compound B-4, 4-(quinolin-3-ylmethyl)-N-(4-(trifluoromethoxy)phenyl)piperidine-1-carboxamide] | 8 ± 1 | 390 | increase of activity/potency towards sEH (hsEH): 80 fold; decrease of activity/potency towards FAAH (hFAAH [2]; relative to PF-750): 20.5 fold
11 | Cc1nnc(-c2ccc(O[C@H]3CC[C@H](NC(=O)Nc4ccc(OC(F)(F)F)cc4)CC3)cc2)o1 [Compound A-25, 1-(trans-4-(4-(5-methyl-1,3,4-oxadiazol-2-yl)phenoxy)cyclohexyl)-3-(4-(trifluoromethoxy)phenyl)urea] | 4 | – | –
12 | O=C(O)CNC(=O)c1ccc(O[C@H]2CC[C@H](NC(=O)Nc3ccc(OC(F)(F)F)cc3)CC2)cc1 [Compound A-16] | 2 | – | –
13 | O=C(Nc1cccnn1)N1CCC(Cc2cccc(Oc3ccc(C(F)(F)F)cn3)c2)CC1 [Compound B-16, N-(pyridazin-3-yl)-4-(3-((5-(trifluoromethyl)pyridin-2-yl)oxy)benzyl)piperidine-1-carboxamide] | > 10000 | 0.5 | –
14 | O=C(Nc1ccccc1F)N1CCC(Cc2cnc3ccccc3c2)CC1 [Compound B-3, N-(2-fluorophenyl)-4-(quinolin-3-ylmethyl)piperidine-1-carboxamide] | 800 ± 400 | 49 | increased potency towards FAAH (hFAAH [2]; relative to PF-750): 2.5 fold
15 | O=C(Nc1ccc(C(F)(F)F)cc1)N1CCC(Cc2cccc(Oc3ccc(C(F)(F)F)cn3)c2)CC1 [Compound B-13, N-(4-(trifluoromethyl)phenyl)-4-(3-((5-(trifluoromethyl)pyridin-2-yl)oxy)benzyl)piperidine-1-carboxamide] | 7 | 8 | –
16 | O=C(Nc1ccc(F)cc1)N[C@H]1CC[C@H](Oc2ccc(C(=O)O)cc2)CC1 [Compound A-2, 4-((trans-4-(3-(4-fluorophenyl)ureido)cyclohexyl)oxy)benzoic acid] | 18 | – | –

Row | Structure (SMILES) | IC50 (hsEH) [nM] | IC50 (hFAAH [2]) [nM] | other results
17 | O=C(Nc1ccc(C(F)(F)F)nc1)N1CCC(Cc2cccc(Oc3ccc(C(F)(F)F)cn3)c2)CC1 [Compound B-15, 4-(3-((5-(trifluoromethyl)pyridin-2-yl)oxy)benzyl)-N-(6-(trifluoromethyl)pyridin-3-yl)piperidine-1-carboxamide] | 70 | 24 | –
18 | O=C(Nc1ccc(Cl)cc1)N1CCC(Cc2cnc3ccccc3c2)CC1 [Compound B-2, N-(4-chlorophenyl)-4-(quinolin-3-ylmethyl)piperidine-1-carboxamide] | 20 ± 4 | 62 | increase of activity/potency towards sEH (hsEH): 30 fold; decrease of activity/potency towards FAAH (hFAAH [2]; relative to PF-750): 3 fold
19 | O=C(Nc1ccc(C(F)(F)F)cc1F)N1CCC(Cc2cccc(Oc3ccc(C(F)(F)F)cn3)c2)CC1 [Compound B-18, N-(2-fluoro-4-(trifluoromethyl)phenyl)-4-(3-((5-(trifluoromethyl)pyridin-2-yl)oxy)benzyl)piperidine-1-carboxamide] | 9 | 3 | –
20 | COc1ccc(NC(=O)N2CCC(Cc3cccc(Oc4ccc(C(F)(F)F)cn4)c3)CC2)cc1 [Compound B-9, N-(4-methoxyphenyl)-4-(3-((5-(trifluoromethyl)pyridin-2-yl)oxy)benzyl) piperidine-1-carboxamide] | – | – | Kd (hFAAH [1]): 0.7 ± 0.27 nM; hFAAH k2 (hFAAH [1]): 0.26 ± 0.03 min⁻¹; increase in potency towards FAAH (hFAAH [2]; relative to B-5): 32 fold
21 | O=C(Nc1ccc(F)cc1)N1CCC(Cc2cnc3ccccc3c2)CC1 [Compound B-1, N-(4-fluorophenyl)-4-(quinolin-3-ylmethyl)piperidine-1-carboxamide] | 94 ± 42 | 88 | increase of activity/potency towards sEH (hsEH): 7 fold; decrease of activity/potency towards FAAH (hFAAH [2]; relative to PF-750): 4 fold
22 | N#Cc1ccc(O[C@H]2CC[C@H](NC(=O)Nc3ccc(OC(F)(F)F)cc3)CC2)cc1 [Compound A-11] | 5 | – | –
23 | O=C(Nc1ccc(OC(F)(F)F)cc1)N1CCC(Cc2cccc(Oc3ccc(C(F)(F)F)cn3)c2)CC1 [Compound B-11, N-(4-(trifluoromethoxy)phenyl)-4-(3-((5-(trifluoromethyl)pyridin-2-yl)oxy)benzyl)piperidine-1-carboxamide] | – | – | hsEH IC50 (hsEH): single digit; hFAAH IC50 (hFAAH [2]): single digit
24 | O=C(Nc1ccccc1)N[C@H]1CC[C@H](Oc2ccc(C(=O)O)cc2)CC1 [Compound A-1, 4-((trans-4-(3-phenylureido)cyclohexyl)oxy)benzoic acid] | 30 | – | –
25 | NC(=O)c1ccc(O[C@H]2CC[C@H](NC(=O)Nc3ccc(OC(F)(F)F)cc3)CC2)cc1 [Compound A-19, trans-4-((−4-(3-(4-(trifluoromethoxy)phenyl)ureido)cyclohexyl)oxy) benzamide] | 2 | – | –
26 | O=C(Nc1cccnc1)N1CCC(Cc2cnc3ccccc3c2)CC1 [Compound B-6, N-(pyridin-3-yl)-4-(quinolin-3-ylmethyl)piperidine-1-carboxamide] | 4700 ± 1800 | 14 | –
27 | O=C(Nc1ccc(C(F)(F)F)cn1)N1CCC(Cc2cccc(Oc3ccc(C(F)(F)F)cn3)c2)CC1 [Compound B-14, N-(5-(trifluoromethyl)pyridin-2-yl)-4-(3-((5-(trifluoromethyl)pyridin-2-yl)oxy)benzyl)piperidine-1-carboxamide] | 60 | 3 | –
28 | COC(=O)CNC(=O)c1ccc(O[C@H]2CC[C@H](NC(=O)Nc3ccc(OC(F)(F)F)cc3)CC2)cc1 [Compound A-17, methyl trans-(4-((4-(3-(4-(trifluoromethoxy)phenyl)ureido)cyclohexyl)oxy)benzoyl)glycinate] | 3 | – | –
29 | O=C(Nc1ccc(OC(F)(F)F)cc1)N[C@H]1CC[C@H](Oc2ccc(C(=O)NCCO)cc2)CC1 [Compound A-15, N-(2-hydroxyethyl)-trans-4-((−4-(3-(4-(trifluoromethoxy)phenyl)ureido)cyclohexyl)oxy)benzamide] | 2 | – | –
30 | O=C(NCCCCOc1ccc(C(=O)O)cc1)Nc1ccc(OC(F)(F)F)cc1 [Compound A-6, 4-(4-(3-(4-(trifluoromethoxy)phenyl)ureido)butoxy)benzoic acid] | 15 | – | –
31 | O=Cc1ccc(O[C@H]2CC[C@H](NC(=O)Nc3ccc(OC(F)(F)F)cc3)CC2)cc1 [Compound A-20, trans-1-(4-(4-formyl-phenoxy)cyclohexyl)-3-(4-(trifluoromethoxy)phenyl)urea] | 4 | – | –
